Reference: article PMC9971056 (JHEP Reports, 2022)

Tested on: HepG2 cells
Experiment: LD50 in HepG2 cells
Assay type: cell-based, Human

Structure (SMILES): CC1(C)CC[C@]2(C(=O)O)CC[C@]3(C)[C@H](C(=O)C=C4[C@@]5(C)C=C(C#N)C(=O)C(C)(C)[C@@H]5CC[C@]43C)[C@@H]2C1 [bardoxolone]
- LD50 in HepG2 cells: < 1 µM
